Laboratory results: PubChem BioAssay AID651885 (Broad Institute, 2012)

Columns and labels:
[1] = tested on: BESM host cells (bovine embryo skeletal muscle), cytotoxicity; experiment: anti-trypanosomal activity in BESM host cells – imaging, CA-I/72 strain, bovine embryo skeletal muscle, dry powder, dose response (AID 651885); details: T. cruzi CA-I/72 amastigotes in BESM cells, imaging, 72 h; measured here: host BESM cell toxicity
[2] = tested on: T. cruzi CA-I/72 amastigotes in BESM cells, imaging, 72 h; experiment: as above; details: for IC90: measured here: parasite IC90, test 4; for IC99: measured here: parasite IC99, test 4

SMILES	IC50 [1]	also measured
CC(C)N1C[C@H](C)[C@@H](CN(C)Cc2ccc(Cl)cc2)Oc2c(NC(=O)c3ccncc3)cccc2C1=O	> 20 µM	
C[C@@H]1CN([C@@H](C)CO)C(=O)c2cccc(NC(=O)c3ccncc3)c2O[C@H]1CN(C)Cc1ccc(C(=O)O)cc1	> 20 µM	
COc1ccc(CN(C)C[C@@H]2Oc3c(NC(=O)c4ccncc4)cccc3C(=O)N([C@@H](C)CO)C[C@H]2C)cc1	> 20 µM	IC90 [2]: 1.58 µM; IC99 [2]: 15.9 µM
CC(C)N1C[C@H](C)[C@@H](CN(C)C(=O)OC(C)(C)C)Oc2c(C(=O)Nc3ccncc3)cccc2C1=O	> 20 µM	
C[C@H]1CN([C@@H](C)CO)C(=O)c2cccc(NC(=O)c3ccncc3)c2O[C@@H]1CN(C)Cc1ccccc1	> 20 µM	
CNC[C@H]1Oc2c(NC(=O)c3ccccc3)cccc2C(=O)N(C(C)C)C[C@@H]1C	> 20 µM	
C[C@H]1CN([C@@H](C)CO)C(=O)c2cccc(NC(=O)c3ccncc3)c2O[C@@H]1CN(C)Cc1ccc(Oc2ccccc2)cc1	> 20 µM	
C[C@@H]1CN([C@@H](C)CO)C(=O)c2cccc(NC(=O)c3ccncc3)c2O[C@H]1CN(C)Cc1ccc(Cl)cc1	> 20 µM	
C[C@H]1CN([C@@H](C)CO)C(=O)c2cccc(NC(=O)c3ccncc3)c2O[C@H]1CN(C)Cc1ccc(Oc2ccccc2)cc1	> 20 µM	
CC(C)N1C[C@H](C)[C@@H](CN(C)C(=O)OC(C)(C)C)Oc2c(NC(=O)c3ccncc3)cccc2C1=O	> 20 µM	
C[C@H]1CN([C@@H](C)CO)C(=O)c2cccc(NC(=O)c3ccncc3)c2O[C@@H]1CN(C)Cc1ccc(C(=O)O)cc1	> 20 µM	
CC(C)N1C[C@H](C)[C@@H](CN(C)C(=O)OC(C)(C)C)Oc2c(NC(=O)c3cccnc3)cccc2C1=O	> 20 µM	
C[C@@H]1CN([C@@H](C)CO)C(=O)c2cccc(NC(=O)c3ccncc3)c2O[C@H]1CN(C)Cc1ccc(Oc2ccccc2)cc1	> 20 µM	IC50 [2]: 0.011 µM; IC90 [2]: 0.108 µM; IC99 [2]: 1.19 µM
C[C@H]1CN([C@@H](C)CO)C(=O)c2cccc(NC(=O)c3ccncc3)c2O[C@@H]1CN(C)Cc1ccc(C(=O)Nc2ccccc2N)cc1	> 20 µM	
C[C@@H]1CN([C@H](C)CO)C(=O)c2cccc(NC(=O)c3ccncc3)c2O[C@H]1CN(C)CC1CCCCC1	> 20 µM	IC90 [2]: 28.5 µM; IC99 [2]: 158 µM
C[C@@H]1CN([C@H](C)CO)C(=O)c2cccc(NC(=O)c3ccncc3)c2O[C@H]1CN(C)Cc1ccc2c(c1)OCO2	> 20 µM	
C[C@H](CO)N1C[C@H](C)[C@@H](CN(C)Cc2ccc(Oc3ccccc3)cc2)Oc2c(NC(=O)c3ccncc3)cccc2C1=O	> 20 µM	
C[C@@H]1CN([C@@H](C)CO)C(=O)c2cc(-c3cncnc3)cnc2O[C@H]1CN(C)Cc1ccc(Oc2ccccc2)cc1	> 20 µM	
CC(C)N1C[C@H](C)[C@@H](CN(C)Cc2cccc(Cl)c2)Oc2c(NC(=O)c3ccncc3)cccc2C1=O	19.1 µM	
C[C@@H]1CN([C@@H](C)CO)C(=O)c2cccc(NC(=O)c3ccncc3)c2O[C@@H]1CN(C)Cc1ccc(Oc2ccccc2)cc1	> 20 µM	
C[C@@H]1CN([C@H](C)CO)C(=O)c2cccc(NC(=O)c3ccncc3)c2O[C@H]1CN(C)Cc1ccccc1	> 20 µM	
C[C@H](CO)N1C[C@H](C)[C@H](CN(C)Cc2ccc(Oc3ccccc3)cc2)Oc2c(NC(=O)c3ccncc3)cccc2C1=O	> 20 µM	
C[C@@H]1CN([C@@H](C)CO)C(=O)c2cc(-c3cccnc3)cnc2O[C@H]1CN(C)Cc1ccc(Oc2ccccc2)cc1	> 20 µM	
C[C@@H]1CN([C@H](C)CO)C(=O)c2cccc(NC(=O)c3ccncc3)c2O[C@H]1CN(C)Cc1ccc(Oc2ccccc2)cc1	> 20 µM	IC90 [2]: 0.45 µM; IC99 [2]: 4.95 µM
CC(C)N1C[C@H](C)[C@@H](CN(C)C(=O)OC(C)(C)C)Oc2c(NC(=O)c3ccccc3)cccc2C1=O	> 20 µM	
C[C@H]1CN([C@@H](C)CO)C(=O)c2cccc(NC(=O)c3ccncc3)c2O[C@@H]1CN(C)Cc1ccncc1	> 20 µM	

SMILES	IC50 [1]	also measured
C[C@@H]1CN([C@@H](C)CO)C(=O)c2cccc(NC(=O)c3ccncc3)c2O[C@H]1CN(C)C	> 20 µM	
C[C@@H]1CN([C@H](C)CO)C(=O)c2cccc(NC(=O)c3ccncc3)c2O[C@@H]1CN(C)Cc1ccc(Oc2ccccc2)cc1	> 20 µM	IC90 [2]: 30.7 µM; IC99 [2]: 238 µM
CNC[C@@H]1Oc2c(NC(=O)c3ccncc3)cccc2C(=O)N(C(C)C)C[C@H]1C	> 20 µM	
CCCn1ncc(CN2CCCC(C(=O)c3cccc(OC(C)C)c3)C2)c1C (stereo not drawn)	> 20 µM	
C[C@@H]1CN([C@@H](C)CO)C(=O)c2cccc(NC(=O)c3ccncc3)c2O[C@H]1CN(C)Cc1ccc(-c2ccccc2)cc1	> 20 µM	
C[C@@H]1CN([C@H](C)CO)C(=O)c2cccc(NC(=O)c3ccncc3)c2O[C@H]1CN(C)Cc1ccc(C(F)(F)F)cc1	> 20 µM	IC90 [2]: 0.472 µM; IC99 [2]: 4.75 µM
C[C@@H]1CN([C@@H](C)CO)C(=O)c2cccc(NC(=O)c3ccncc3)c2O[C@H]1CN(C)Cc1ccccc1Cl	> 20 µM	
Cc1cc(C(=O)Nc2cccc3c2O[C@@H](CN(C)Cc2ccc(Oc4ccccc4)cc2)[C@H](C)CN([C@@H](C)CO)C3=O)n(C)n1	> 20 µM	
CC(C)N1C[C@H](C)[C@@H](CN(C)C(=O)OC(C)(C)C)Oc2c(C#N)cccc2C1=O	> 20 µM	
C[C@@H]1CN([C@@H](C)CO)C(=O)c2cc(Br)cnc2O[C@H]1CN(C)Cc1ccc2c(c1)OCO2	> 20 µM	
CC(C)N1C[C@H](C)[C@@H](CN(C)Cc2ccccc2)Oc2c(NC(=O)c3ccncc3)cccc2C1=O	> 20 µM	
CC(C)N1C[C@H](C)[C@@H](CN(C)Cc2ccc(Oc3ccccc3)cc2)Oc2c(NC(=O)c3ccccc3)cccc2C1=O	16.1 µM	
C[C@@H]1CN([C@@H](C)CO)C(=O)c2cccc(NC(=O)c3ccncc3)c2O[C@H]1CN(C)Cc1ccc2c(c1)OCO2	> 20 µM	IC90 [2]: 0.921 µM; IC99 [2]: 7.92 µM
C[C@H]1CN([C@@H](C)CO)C(=O)c2cccc(NC(=O)c3ccncc3)c2O[C@@H]1CN(C)Cc1ccc(Cl)c(Cl)c1	> 20 µM	
CC(C)N1C[C@H](C)[C@@H](CN(C)Cc2ccccc2Cl)Oc2c(NC(=O)c3ccncc3)cccc2C1=O	> 20 µM	
COc1ccc(CCN(C)C(=O)C2CCCN(Cc3ccc(OC)c(OC)c3)C2)cc1OC (stereo not drawn)	> 20 µM	
C[C@@H]1CN([C@@H](C)CO)C(=O)c2cccc(NC(=O)c3ccncc3)c2O[C@H]1CN(C)Cc1cccc(Cl)c1	> 20 µM	
CC(C)N1C[C@H](C)[C@@H](CN(C)C(=O)OC(C)(C)C)Oc2c(C(=O)O)cccc2C1=O	> 20 µM	
C[C@@H]1CN([C@@H](C)CO)C(=O)c2cc(-c3ccncc3)cnc2O[C@H]1CN(C)Cc1ccc(Oc2ccccc2)cc1	5 µM	
C[C@H]1CN([C@@H](C)CO)C(=O)c2cccc(NC(=O)c3ccncc3)c2O[C@@H]1CN(C)Cc1ccc(C(F)(F)F)cc1	> 20 µM	
CC(C)N1C[C@H](C)[C@@H](CN(C)Cc2ccc(Oc3ccccc3)cc2)Oc2c(NC(=O)c3ccncc3)cccc2C1=O	> 20 µM	
CC(C)N(C)C(=O)c1cccc(NC(=O)c2ccncc2)c1OCCCN(C)Cc1ccc(Cl)cc1	> 20 µM	
C[C@@H]1CN([C@@H](C)CO)C(=O)c2cccc(NC(=O)c3cnccn3)c2O[C@H]1CN(C)Cc1ccc(Oc2ccccc2)cc1	> 20 µM	
C[C@@H]1CN([C@@H](C)CO)C(=O)c2cccc(NC(=O)c3ccncc3)c2O[C@H]1CN(C)CC1CCCCC1	> 20 µM	IC90 [2]: 6.03 µM; IC99 [2]: 63.4 µM
COc1ccc(CN(C)C[C@H]2Oc3c(NC(=O)c4ccncc4)cccc3C(=O)N([C@@H](C)CO)C[C@@H]2C)cc1	15.3 µM	
